From patent publication US20250093329A1, “SCREENING OF COMPOUNDS” (THE UNIVERSITY OF TULSA, priority 2022, published 2025)

Legend:
Type in all cases: cell-based
[1] = tested on: MCF7 and MCF10A; test: Comparison of cancerous and non-cancerous cells (FIG. 33); conditions: 10 μM to 30 μM
Procedure: FIG. 33 compares the impact of compounds 140-161 on breast cancer cell line MCF7 and non-cancerous […] cells MCF10A. All compounds tested were in the range of 10 μM to 30 μM.

[2] = tested on: lung cancer cells A549; test: Rapid one hour CellTiter-Glo ATP screening (FIGS. 16-18, 21-24); conditions: for effectiveness by POC (FIG. 17): 10-30 μM; for effectiveness by POC (FIG. 24): L15 media
Description: (§1) When used to identify compounds for specific patients, the following steps will be carried out: • Individualized patient cells will be acquired from a tumor biopsy and cultured/grown in patient blood serum and/or plasma. (In most instances the cells will be obtained using a needle biopsy; i.e. fine needle aspiration biopsy. Optionally, the cells may be obtained from resected tumor (i.e. excisional biopsy, which is an attempt at complete tumor removal), and/or a core biopsy; (i.e. removal of part of the tumor). Alternatively, cells may be obtained from blood draw samples, which would contain leukemia, lymphoma and myeloma cells.) • The cells (as few as 100 cells per experiment) will be screened directly in patient blood serum and/or plasma in the absence or presence of glycolysis inhibitor, 2-deoxyglucose (2DG) using a rapid (1-2 hr) screening assay (CellTiter-Glo, or “CTG”). • NOTE: while the discussion herein focuses on CTG, other assays suitable for measuring changes in ATP levels will perform equally as well. […] DMEM contains glucose, but L15 has substituted glucose with galactose. This means that in DMEM, 2DG is added to inhibit glycolysis; but in L15, the addition of 2DG is unnecessary to achieve the same result as the lack of glucose in L15 precludes access to the metabolic pathway that would utilize glucose. […] The compounds identified with compound numbers 140-161 as depicted in FIGS. 11 and 12 were tested in this manner. NOTE: compound number 141 is Gramicidin, also known as Gramicidin D. This antibiotic is identified by CAS number 1393-88-0. • The rapid screening assay provides evidence of unexpected drug activity for known drugs against cancer cell lines. Thus, the screening of FDA-approved drugs for synergistic activity with metabolic inhibitors can provide anticancer drugs from drugs currently used for other purposes.
The data presented in FIGS. 16-33 was developed using compounds 140-161 as depicted in FIGS. 11 and 12. The graphs of FIGS. 16-33 provide a direct comparison of the rapid screening method wherein the tests were carried out over one hour (CTG) using Dulbecco's Modified Eagle Medium (DMEM), […] 2DG and L15 media (described below), a cell media that is missing glucose; the equivalent to DMEM plus 2DG. Compounds 140-161 were screened against lung cancer cells designated A549. Similar results are obtained in most cases, but a few examples show significant enhancement of activity in L15. As used in the discussion below, Rot=rotenone, and 2DG+Rot=a positive control (ATP should be inhibited to a high degree).
FIG. 16 provides a comparison of DMEM and L15 media at 50-200 μM. After one hour of exposure and assessment of the ATP values using CellTiter-Glo assay, the “percent of control” (POC) value is determined with respect to the DMSO control. As reflected by FIG. 16, the following compounds, at the indicated concentrations, would be considered effective against the cancer cells of line A549: 140, 142, 149, 150, 155, 156, 159, 160, 161. The same compounds were tested at 10-30 μM with the results depicted in FIG. 17. At these concentrations, the following compounds would be considered effective at least one concentration level: 141, 155, 156, 159, 160.
FIG. 18 provides a comparison of DMEM with 10 mM 2DG with the compounds of interest at concentrations of 50 to 200 μM and 10 to 30 μM to L15 Media with the compounds of interest at concentrations of 50 to 200 μM and 10 to 30 μM. The compounds were tested against the same cancer cell line with one hour of exposure and CTG assay with POC reported against a DMSO control. Under the reported conditions the following compounds would be considered to have effectiveness in treating the cancer cell line at least one concentration level: 140, 141, 149, 155, 156, 159, 160, 161.
FIGS. 21 and 22 provide test data developed using the rapid testing method described above. […]

[3] = Rapid one hour CellTiter-Glo ATP screening in L15 (FIG. 26); conditions: MCF10A; L15 media; one hour CTG; at least one concentration level
[4] = tested on: breast cancer cell line MCF7; test: Rapid one hour CellTiter-Glo ATP screening in L15 (FIG. 29); conditions: for effectiveness by POC (FIG. 29): L15 media, one hour CTG, at least one concentration level
Description: [The source words this procedure for another cell line and reports this cell line under the same test.] as §1
(§2) The data presented in FIGS. 16-33 was developed using compounds 140-161 as depicted in FIGS. 11 and 12. […]

[5] = tested on: pancreatic cancer cell line SW-1990; test: Rapid one hour CellTiter-Glo ATP screening in L15 (FIG. 30); conditions: for effectiveness by POC (FIG. 30): L15 media, one hour CTG, at least one concentration level
Description: [The source words this procedure for another cell line and reports this cell line under the same test.] as §1, §2

[6] = tested on: pancreatic cancer cell line CFPAC-1; test: Rapid one hour CellTiter-Glo ATP screening in L15 (FIG. 31)
Description: [The source words this procedure for another cell line and reports this cell line under the same test.] (§3) When used to identify compounds for specific patients, the following steps will be carried out: • Individualized patient cells will be acquired from a tumor biopsy and cultured/grown in patient blood serum and/or plasma. (In most instances the cells will be obtained using a needle biopsy; i.e. fine needle aspiration biopsy. Optionally, the cells may be obtained from resected tumor (i.e. excisional biopsy, which is an attempt at complete tumor removal), and/or a core biopsy; (i.e. removal of part of the tumor). Alternatively, cells may be obtained from blood draw samples, which would contain leukemia, lymphoma and myeloma cells.) • The cells (as few as 100 cells per experiment) will be screened directly in patient blood serum and/or plasma in the absence or presence of glycolysis inhibitor, 2-deoxyglucose (2DG) using a rapid (1-2 hr) screening assay (CellTiter-Glo, or “CTG”). • NOTE: while the discussion herein focuses on CTG, other assays suitable for measuring changes in ATP levels will perform equally as well. […] DMEM contains glucose, but L15 has substituted glucose with galactose. This means that in DMEM, 2DG is added to inhibit glycolysis; but in L15, the addition of 2DG is unnecessary to achieve the same result as the lack of glucose in L15 precludes access to the metabolic pathway that would utilize glucose. […]

[7] = tested on: A549, NCI H196 and MCF10A; test: Comparison of effectiveness between cell lines (FIG. 27); conditions: 50 μM to 200 μM, L15, one hour CTG
Procedure: FIG. 27 provides a comparison of the effectiveness of the compounds against A549, NCI H196 and MCF10A at concentrations in the range of 50 μM to 200 μM.

[8] = tested on: ovarian cancer cell line HeLa; test: Rapid one hour CellTiter-Glo ATP screening in L15 (FIG. 28); conditions: for effectiveness by POC (FIG. 28): L15 media, one hour CTG, at least one concentration level
Description: [The source words this procedure for another cell line and reports this cell line under the same test.] as §1, §2

[9] = tested on: lung cancer cell line NCI H196; test: Rapid one hour CellTiter-Glo ATP screening in L15 (FIG. 25); conditions: L15 media, one hour CTG, at least one concentration level
Description: [The source words this procedure for another cell line and reports this cell line under the same test.] as §3

[10] = DMEM and L15 media, one hour, at least one concentration level
[11] = 1-8 μm, 10-30 μM and 50-200 μM, one hour CTG, at least one concentration level

Row | Compound | impact on cancerous versus non-cancerous cells (FIG. 33) [1] | effectiveness (FIG. 23) ([2]; 145 μM in L15) | effectiveness by POC (FIG. 17) [2, 10] | effectiveness by POC (FIG. 16) ([2]; DMEM and L15 media, 50-200 μM, one hour, CellTiter-Glo, DMSO control) | effectiveness by POC when combined with 2DG (FIG. 22) ([2]; DMEM with 10 mM 2DG, 1-8 μm, 10-30 μM and 50-200 μM, one hour CTG, at least one concentration level) | effectiveness by POC (FIG. 24) [2, 11] | effectiveness by POC (FIG. 26) [3] | effectiveness against breast cancer (FIG. 29) ([4]; 145 μM, L15) | effectiveness by POC (FIG. 29) [4] | effectiveness against pancreatic cancer (FIG. 30) ([5]; 145 μM, L15) | effectiveness by POC (FIG. 30) [5] | effectiveness against pancreatic cancer (FIG. 31) ([6]; 145 μM, L15) | effectiveness by POC (FIG. 31) ([6]; L15 media, one hour CTG, at least one concentration level) | subtype specificity (FIG. 27) [7] | effectiveness against ovarian cancer (FIG. 28) ([8]; 145 μM, L15) | effectiveness by POC (FIG. 28) [8] | effectiveness by POC (FIG. 25) [9]
1 | CN(C)CCCOc1nn(Cc2ccccc2)c2ccccc12 [Compound 156, benzydamine] | significantly more impact on the cancerous cells | unexpected effectiveness | effective | effective | effective | likely to be effective | likely effective | effective | likely effective | effective | likely effective | effective | likely effective | subtype specificity | effective | likely effective | 
2 | Gramicidin [Compound 141] |  |  | effective |  |  | likely to be effective | likely effective |  | likely effective |  | likely effective |  |  | subtype specificity |  | likely effective | likely effective
